Values of other authors, collected in patent publication US8821944B1, “Polymorph compositions, methods of making, and uses thereof” (Edge Therapeutics, Inc., priority 2013, dated 2014).

Key:
[1] = at +25° C. and +37° C.
[2] = at +25° C. and +37° C.; remark: listed apart in the source

Compound: COCCOC(=O)C1=C(C)NC(C)=C(C(=O)OC(C)C)C1c1cccc([N+](=O)[O-])c1 (centres unmarked) [Form II]
- solubility compared to Form I [1]: lower solubility
- stability compared to Form I [2]: higher stability
